Reference: patent US6809084B1, “Compositions containing polysaccharides from phellinus linteus and methods for treating diabetes mellitus using same” (Korea Research Institute of Bioscience and Biotechnology, priority 2000, dated 2004)

System: ICR mouse
Test: Streptozotocin-induced diabetes in ICR mice
Assay type: in vivo
Conditions: 60 mg/kg three times i.p., normal ICR mouse 200 mg/dl
Description: FIG. 7 illustrates the effect of PL on experimental group with streptozotocin-induced diabetes. Blood glucose values were measured with Accutrend sensor system (Boehringer Mannheim, Germany).
Streptozotocin, which can induce Insulin-dependent diabetes mellitus, destroys selectively pancreatic beta cells, and diabetes mellitus induced :by streptozotocin is similar with diabetes naturally occurring in NOD mice. […] ICR mouse received 60 mg/kg of streptozotocin three times with intraperitoneal injection. Streptozotocin was used in solution of citrate buffer (pH 4.2, 4° C.). The blood glucose level of ICR mouse treated with streptozotocin was 450 mg/dl, whereas that of normal ICR mouse without streptozotocin was 200 mg/dl (FIG. 7).

**Q.** For CN(N=O)C(=O)N[C@H]1C(O)O[C@H](CO)[C@@H](O)[C@@H]1O (mixture of isomers) [streptozotocin], which blood glucose level is on record?
**A.** 450 mg/dL
